The values below come from US12662460B2, “Compositions for use for the inhibition of dihydroorotate dehydrogenase” (OHIO STATE INNOVATION FOUNDATION, priority 2019, dated 2026).

Bounds are passed on as bounds.

For orientation: IC50 means the point on the concentration scale where inhibition reaches its midpoint.

The test system of one assay is OCI-AML3. In words: MTS assay for cell growth/viability, OCI-AML3. Format: cell-based. The settings on record: Homo sapiens, OCI-AML-3, 96 hours. As for the experimental part:
(§1) MTS assay for cell growth/viability: Mitochondrial activity was measured to determine cell proliferation using an MTS assay ([…]). Metabolically active cells convert MTS tetrazolium salt into a purple formazan product that is soluble in tissue culture medium. The amount of formazan measured at 490 nm absorbance is proportional to the number of proliferating cells. MTS assays in AML cell lines were carried out with 20K cells plated per well in 96-well plates with Cpd3 or brequinar in a dose series ranging from 0.0001 to 10 μM. Triplicate wells were set up for each condition. At 96 hours, the MTS reagent was added and after approximately 4 hours the plates were read in a spectrophotometer.
(§2) Biological Activity. Cell proliferation assays were carried out using the MTS assay described herein using two AML cell lines (i.e., MOLM13 and OCI-AML3) with varied genetic backgrounds. The assays were carried out in a blinded fashion.
A general note: Tetrazolium assays rely on reduction of a dye to a coloured formazan, in cell work by metabolically active cells.

The next assay deals with T1, recombinant human DHODH (Homo sapiens, UniProt Q02127).
T1 construct: made in house
T1 sequence (Q02127 whole entry): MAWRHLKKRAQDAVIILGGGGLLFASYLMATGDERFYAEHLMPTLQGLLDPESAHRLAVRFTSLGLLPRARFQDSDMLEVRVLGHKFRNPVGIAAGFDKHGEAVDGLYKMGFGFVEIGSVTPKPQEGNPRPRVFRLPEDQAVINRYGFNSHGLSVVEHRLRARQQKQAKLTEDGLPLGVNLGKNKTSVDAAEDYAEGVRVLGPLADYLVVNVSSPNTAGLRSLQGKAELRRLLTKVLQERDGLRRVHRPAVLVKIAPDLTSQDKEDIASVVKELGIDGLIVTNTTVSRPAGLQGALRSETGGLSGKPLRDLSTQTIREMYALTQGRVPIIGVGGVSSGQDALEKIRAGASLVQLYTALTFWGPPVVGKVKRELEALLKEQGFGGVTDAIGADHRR
In words: DHODH enzymatic assay (DCIP reduction). Format: biochemical. The conditions noted are these: recombinant human enzyme, 25° C.; read-out: h-DHODH IC50. Here is the method: DHODH Enzymatic Assay: DHODH activity was determined at 25° C. following the reduction of 2,6-dichloroindophenol sodium salt (DCIP) at 600 nm (ε=18 800 M^−1 cm^−1) on a spectrophotometer. The reaction medium used contained 50 mM Tris-HCl, pH 8.0, 0.1% Triton X-100, 0.1 mM LDHO, 0.025 mM CoQ1, and 0.06 mM DCIP. The reaction was started by addition of the enzyme. The inhibitory potency of the compounds was evaluated by measuring the initial velocity of the reaction either in the absence or in the presence of the compounds at the indicated concentrations. The DHODH enzyme used was the recombinant human enzyme prepared as previously described (Hëlène Munier-Lehmann, et al., J. Med. Chem. 2015, 58:860-877).

The test system of a further assay is MOLM13. In words: MTS assay for cell growth/viability, MOLM13. It is filed as cell-based. The settings on record: Homo sapiens, MOLM-13, 96 hours. Here is the method:
as §1, §2

Take `CCOc1ccc(-c2ccc(-c3cc(C(=O)O)c4cc(F)ccc4n3)nn2)cc1` [Cpd5, 2-(6-(4-ethoxyphenyl)pyridazin-3-yl)-6-fluoroquinoline-4-carboxylic acid]: the half-maximal inhibitory concentration (IC50) was greater than 10 µM with OCI-AML3 and 4750 nM at recombinant human DHODH.
On to `CCOc1ccc(-c2ccc(-c3cc(C(=O)O)c4cc(F)ccc4n3)cn2)cc1` [Cpd1, 2-(6-(4-ethoxyphenyl)pyridin-3-yl)-6-fluoroquinoline-4-carboxylic acid], for which the IC50 was 4.32 µM with OCI-AML3, 5350 nM in the assay with MOLM13 and 628 nM at recombinant human DHODH.
With `CCOc1cccc(-c2cnc(-c3cc(C(=O)O)c4cc(F)ccc4n3)nc2)c1` [Cpd6, 2-(5-(3-ethoxyphenyl)pyrimidin-2-yl)-6-fluoroquinoline-4-carboxylic acid], the IC50 in the assay with OCI-AML3 is greater than 10 µM; at recombinant human DHODH, 1820 nM.
`CCOc1ccc(-c2cnc(-c3cc(C(=O)O)c4cc(F)ccc4n3)nc2)cc1` [Cpd3, 2-(5-(4-ethoxyphenyl)pyrimidin-2-yl)-6-fluoroquinoline-4-carboxylic acid] yielded an IC50 in the assay on OCI-AML3 of 3.64 µM.
Take `CCOc1ccc(-c2ccc(-c3cc(C(=O)O)c4cc(F)ccc4n3)nc2)cc1` [Cpd2, 2-(5-(4-ethoxyphenyl)pyridin-2-yl)-6-fluoroquinoline-4-carboxylic acid]: the IC50 in the assay with OCI-AML3 was 0.709 µM; in the assay with MOLM13, 571 nM; on recombinant human DHODH it was 317 nM.
Take `CCOc1ccc(-c2cnc(-c3cc(C(=O)O)c4cc(F)ccc4n3)cn2)cc1` [Cpd4, 2-(5-(4-ethoxyphenyl)pyrazin-2-yl)-6-fluoroquinoline-4-carboxylic acid]: the concentration for half-maximal inhibition (IC50) in the assay on OCI-AML3 turned out to be 2.1 µM; at recombinant human DHODH, 500 nM.
The matching figures for `CCOc1cccc(-c2ccc(-c3cc(C(=O)O)c4cc(F)ccc4n3)nn2)c1` [Cpd7, 2-(6-(3-ethoxyphenyl)pyridazin-3-yl)-6-fluoroquinoline-4-carboxylic acid]: greater than 10 µM and 605 nM.
